From article PMC6556873, “Rapid Covalent-Probe Discovery by Electrophile-Fragment Screening” (Journal of the American Chemical Society, 2019)
Like-named read-outs stand apart in the source and are kept apart here.

Columns and labels:
[1] = in vitro; parameters: species or system CCD841, HEK293; details: human, hb2 cells, read-out: HB-2 Cells Viability (%)
[2] = in vitro; parameters: species or system HB2, CCD841; details: human, hek293 cells
[3] = in vitro; parameters: species or system HB2, HEK293; details: human, ccd841 cells
[4] = target: T1, NUDT7 (Homo sapiens, UniProt P0C024); parameters: Intact protein LC/MS covalent labelling, fragments in pools of five, 200 uM each, 4 °C; details: 24 h, 4 °C, pool of five; 200 µM; covalent
T1 construct: residues 14-235, E. coli, pNIC28-Bsa4, N-terminal His6 tag removed by TEV, construct 26672 Da

[5] = target: T2, PCAF (Homo sapiens, UniProt Q92831); parameters: Intact protein LC/MS covalent labelling, fragments in pools of five, 200 uM each, 4 °C; details: 24 h, 4 °C, pool of five; 200 µM; covalent
T2 construct: gene KAT2B

[6] = target: T3, BSA (Bos taurus, UniProt P02769); parameters: Intact protein LC/MS covalent labelling, fragments in pools of five, 200 uM each, 4 °C; details: 24 h, 4 °C, pool of five; 200 µM; covalent
T3 construct: gene ALB

[7] = target: T4, OTUB2 (OTUB2A) (Homo sapiens, UniProt Q96DC9); parameters: Intact protein LC/MS covalent labelling, fragments in pools of five, 200 uM each, 4 °C; details: 24 h, 4 °C, pool of five; 200 µM; covalent
T4 construct: full length residues 1-234, E. coli BL21(DE3)-R3, His tag removed by TEV, construct 27312 Da
T4 sequence (Q96DC9 1-234): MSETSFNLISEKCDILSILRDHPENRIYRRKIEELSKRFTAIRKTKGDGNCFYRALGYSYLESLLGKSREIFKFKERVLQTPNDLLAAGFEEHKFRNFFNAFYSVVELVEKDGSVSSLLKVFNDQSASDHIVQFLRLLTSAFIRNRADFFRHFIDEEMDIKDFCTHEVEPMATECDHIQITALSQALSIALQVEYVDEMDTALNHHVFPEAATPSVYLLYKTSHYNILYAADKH

T1 sequence (P0C024 14-235): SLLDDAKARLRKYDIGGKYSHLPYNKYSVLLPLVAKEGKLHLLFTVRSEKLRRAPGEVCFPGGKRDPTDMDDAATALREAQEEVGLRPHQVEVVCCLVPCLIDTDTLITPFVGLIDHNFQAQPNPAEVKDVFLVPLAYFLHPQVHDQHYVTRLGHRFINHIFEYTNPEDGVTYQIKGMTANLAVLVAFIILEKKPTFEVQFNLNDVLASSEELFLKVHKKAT
T2 sequence (Q92831 whole entry, the tested form may be a part): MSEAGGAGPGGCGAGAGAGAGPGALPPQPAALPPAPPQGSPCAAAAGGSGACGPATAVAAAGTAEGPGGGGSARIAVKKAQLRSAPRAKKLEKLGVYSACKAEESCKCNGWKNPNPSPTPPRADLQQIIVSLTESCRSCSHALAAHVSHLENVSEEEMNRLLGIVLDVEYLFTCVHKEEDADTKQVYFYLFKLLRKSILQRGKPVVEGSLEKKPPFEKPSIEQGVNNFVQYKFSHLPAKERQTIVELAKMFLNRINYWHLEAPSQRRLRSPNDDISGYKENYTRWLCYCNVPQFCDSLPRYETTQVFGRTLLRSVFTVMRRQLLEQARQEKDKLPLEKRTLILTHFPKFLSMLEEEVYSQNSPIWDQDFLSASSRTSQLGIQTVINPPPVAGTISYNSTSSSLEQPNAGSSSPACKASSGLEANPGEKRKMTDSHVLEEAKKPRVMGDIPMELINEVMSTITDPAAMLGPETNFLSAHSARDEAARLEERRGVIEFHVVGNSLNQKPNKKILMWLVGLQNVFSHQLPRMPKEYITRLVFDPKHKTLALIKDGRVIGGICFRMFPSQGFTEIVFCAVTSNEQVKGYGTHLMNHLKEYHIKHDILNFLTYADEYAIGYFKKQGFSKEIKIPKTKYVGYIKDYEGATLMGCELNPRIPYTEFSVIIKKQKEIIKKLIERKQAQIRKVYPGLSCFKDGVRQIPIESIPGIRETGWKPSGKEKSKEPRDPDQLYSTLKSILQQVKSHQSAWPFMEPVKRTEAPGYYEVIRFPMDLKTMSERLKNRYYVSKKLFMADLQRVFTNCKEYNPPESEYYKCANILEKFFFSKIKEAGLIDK
T3 sequence (P02769 whole entry, the tested form may be a part): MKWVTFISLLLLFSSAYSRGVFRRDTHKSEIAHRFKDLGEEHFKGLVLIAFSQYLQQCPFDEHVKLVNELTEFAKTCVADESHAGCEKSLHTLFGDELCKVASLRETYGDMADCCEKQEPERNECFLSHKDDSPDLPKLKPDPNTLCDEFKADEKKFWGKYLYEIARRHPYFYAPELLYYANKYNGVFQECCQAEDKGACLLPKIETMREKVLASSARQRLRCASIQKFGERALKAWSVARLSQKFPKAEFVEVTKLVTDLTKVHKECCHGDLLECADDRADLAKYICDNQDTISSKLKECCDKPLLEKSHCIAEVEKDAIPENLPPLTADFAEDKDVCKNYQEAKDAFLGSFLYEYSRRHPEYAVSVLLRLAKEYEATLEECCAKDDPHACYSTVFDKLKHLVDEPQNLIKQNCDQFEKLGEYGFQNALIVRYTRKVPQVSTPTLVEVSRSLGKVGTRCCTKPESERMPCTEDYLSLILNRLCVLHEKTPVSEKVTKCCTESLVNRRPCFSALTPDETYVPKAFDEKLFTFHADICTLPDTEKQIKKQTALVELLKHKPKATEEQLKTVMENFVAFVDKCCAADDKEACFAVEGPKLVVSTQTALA

Row | Structure (SMILES) | viability at 48 h, 10 µM [1] [%] | viability at 48 h, 10 µM [2] [%] | viability at 48 h, 10 µM [3] [%] | NUDT7 [4] | PCAF [5] | BSA [6] | OTUB2 [7]
1 | Cl.O=C(CCl)N1CCN(c2cccc(C(F)(F)F)c2)CC1 [PCM-0102239] | 4.2 | 19.6 | 28.2 | 0.08 | 0 | 0.07 | 0
2 | CN(CC1COc2ccccc2O1)C(=O)CCl (stereo not drawn) [PCM-0102756] | 13.3 | 21.7 | 52.5 | 0.16 | 0 | 0 | 0.06
3 | Cl.O=C(CCl)Nc1ccncc1 [PCM-0102930] | 86.4 | 90.5 | 90.7 | 0 | 0 | 0 | 0
4 | CC(C)(C)c1ccc(NC(=O)CCl)cc1 [PCM-0102622] | 12.6 | 10.3 | 38.7 | 0 | 0 | 0 | 0.32
5 | O=C(CCl)N1CCOC2CCCCC21 (stereo not drawn) [PCM-0102940] | 93.7 | 74 | 95.8 | 0 | 0 | 0 | 0
6 | O=C1CN(C(=O)CCl)c2ccccc2N1 [PCM-0102362] | 79.8 | 61.4 | 92.6 | 0 | 0 | 0 | 0
7 | O=C(CCl)N1CCN(S(=O)(=O)c2ccc(Cl)s2)CC1 [PCM-0102121] | 1.7 | 2 | 20.6 | 0.15 | 0 | 0 | 0
8 | Cc1cc(N2CCN(C(=O)CCl)CC2)nc(C(C)C)n1 [PCM-0102638] | 97.7 | 89.8 | 107 | 0 | 0 | 0.11 | 0
9 | C=CC(=O)N1CCN(C(C)C)c2ccccc2C1 [PCM-0102888] | 108 | 101 | 93.1 | 0 | 0 | 0 | 0
10 | C=CC(=O)Nc1cc(F)cc(F)c1 [PCM-0103039] | 86.7 | 67.1 | 93.3 | 0.06 | 0 | 0 | 0
11 | C=CC(=O)NC1CCCc2cnn(C(C)C)c21 (stereo not drawn) [PCM-0102583] | 105 | 96.8 | 120 | 0 | 0 | 0 | 0
12 | C=CC(=O)NC(c1cnn(C)c1)C(F)(F)F (stereo not drawn) [PCM-0103073] | 99.5 | 94.4 | 107 | 0 | 0 | 0 | 0
13 | Cl.O=C(CCl)N1CCN(Cc2cccs2)CC1 [PCM-0102243] | 45.7 | 43.5 | 77.1 | 0.08 | 0 | 0 | 0
14 | CCC1CCCCN1C(=O)CCl (stereo not drawn) [PCM-0102828] | 85.9 | 69.4 | 80.9 | 0.04 | 0 | 0 | 0
15 | O=C(CCl)Nc1ccccc1Br [PCM-0102312] | 90.8 | 92.9 | 89.7 | 0.15 | 0 | 0 | 0
16 | CCN(C(=O)CCl)C1CC1 [PCM-0102594] | 100 | 92.7 | 95.2 | 0 | 0 | 0 | 0
17 | CC(NC(=O)CCl)C1CC2CCC1C2 (stereo not drawn) [PCM-0102572] | 92 | 80.7 | 91.1 | 0 | 0 | 0 | 0
18 | O=C(CCl)Nc1nccs1 [PCM-0102242] | 88.3 | 70.1 | 79.3 | 0 | 0 | 0.17 | 0
19 | Cc1nnc(NC(=O)CCl)s1 [PCM-0102211] | 99.8 | 90.5 | 86.7 | 0 | 0 | 0 | 0
20 | Cl.O=C(CCl)N1CCN(Cc2cccc3ccccc23)CC1 [PCM-0102287] | 9.4 | 19.9 | 21.7 | 0 | 0 | 0 | 0.29
21 | O=C(CCl)Nc1nc(-c2ccc(F)c(F)c2)cs1 [PCM-0102244] | 6.9 | 0.9 | 76.5 | 0.53 | 0 | 0.15 | 0.29
22 | Cc1ccccc1NC(=O)CCl [PCM-0102887] | 90.2 | 55.1 | 69.6 | 0 | 0 | 0 | 0
23 | Cc1ccc(NC(=O)CCl)cc1I [PCM-0102577] | 4.6 | 2.4 | 17.9 | 0.34 | 0 | 0 | 0.8
24 | C=CC(=O)N1CCCc2ccccc21 [PCM-0102549] | 111 | 111 | 109 | 0 | 0 | 0 | 0
